Measurements published in US9828342B2, “Isatin derivatives, pharmaceutical compositions thereof, and methods of use thereof” (CITY OF HOPE, priority 2012, dated 2017).
Where two headings read alike, the source gives them in different places. Each block holds one compound with its values, some of them ahead of it.

Columns and labels:
Assay type in all cases: cell-based
[1] = system: A2058 human melanoma cells; experiment: MTS cell viability assay in A2058 melanoma cells
Procedure: (§1) Then, MTS assays for cell viability were carried out to determine the IC50 values. Four samples were tested for each isatin derivative at each concentration in each cell line, and the averaged data were shown in Table 2a and FIGS. 1˜4.
(§2) IC50 of values of isatin derivatives Compounds 101˜123 were determined in cancer cell lines DU145 and A2058 respectively.

[2] = system: DU145 prostate cancer cells; experiment: MTS cell viability assay in DU145 prostate cancer cells
Procedure: as §1, §2

[3] = system: A2780 cisplatin-resistant ovarian cancer cells; experiment: MTS cell viability assay in A2780 cisplatin-resistant ovarian cancer cells; details: Homo sapiens, A2780, 48 h, A2780 cisplatin-resistant, 48 hr, 1% DMSO, MTS
Procedure: (§3) Each type of cells (5,000 or 10,000 cells/well) were treated with different concentration (0.1 μM to 20 μM in 1% DMSO of cisplatin or Compound 2, 9, 12, 16 or 22 respectively for 48 hr). Then, MTS assays for cell viability were carried out to determine the IC50 values. Four samples were tested for each test compound at each concentration for each type of cells, and the averaged data were shown in Table 4 and FIGS. 6-8.

[4] = system: OVCAR5 ovarian cancer cells; experiment: MTS cell viability assay in OVCAR5 ovarian cancer cells; details: Homo sapiens, OVCAR-5, OVCAR5, 48 hr, 1% DMSO
Procedure: as §3

[5] = Homo sapiens, A2058, 48 h, 0.05 to 10 μM in 1% DMSO, MTS (Table 2a), read-out: A2058 IC50
[6] = Homo sapiens, DU-145, 48 h, DU145, 48 hr, 0.05 to 10 μM in 1% DMSO, MTS (Table 2a), read-out: DU145 IC50
[7] = Homo sapiens, A2058, 48 h, A2058, compound in DMSO, 48 hr, MTS (Table 2b), read-out: IC50 value, DMSO, A2058
[8] = Homo sapiens, DU-145, 48 h, DU145, compound in DMSO, 48 hr, MTS (Table 2b), read-out: IC50 value, DMSO, DU145
[9] = A2058, compound in DMSO, 48 hr, MTS (Table 2b), read-out: IC50 value, DMSO, A2058
[10] = DU145, compound in DMSO, 48 hr, MTS (Table 2b), read-out: IC50 value, DMSO, DU145
[11] = Homo sapiens, A2058, 48 h, A2058, compound in water, 48 hr, MTS (Table 2b), read-out: IC50 value, Water, A2058
[12] = Homo sapiens, DU-145, 48 h, DU145, compound in water, 48 hr, MTS (Table 2b), read-out: IC50 value, Water, DU145

SMILES: O=C1C(=O)N(Cc2ccccc2)c2cc(-c3ccccc3)ccc21 [Compound 1]
IC50 [1, 5]: > 10 µM
IC50 [2, 6]: > 10 µM

SMILES: O=C1C(=O)N(Cc2ccccc2)c2cc(Br)ccc21 [Compound 3, N-benzyl-6-bromoindoline-2,3-dione]
IC50 [1, 5]: 8.4 µM
IC50 [2, 6]: 8.5 µM

SMILES: O=C1C(=O)N(Cc2ccccc2)c2ccc(I)cc21 [Compound 4, N-benzyl-5-iodoindoline-2,3-dione]
IC50 [1, 5]: 3.8 µM
IC50 [2, 6]: 2.4 µM

SMILES: O=C1C(=O)N(Cc2ccccc2)c2cccc(Br)c21 [Compound 5]
IC50 [1, 5]: > 10 µM
IC50 [2, 6]: > 10 µM

SMILES: C[Si](C)(C)CCOCN1C(=O)C(=O)c2cc(I)ccc21 [Compound 6]
IC50 ([1]; Homo sapiens, A2058, 48 hr, 0.05 to 10 μM in 1% DMSO, MTS (Table 2a), read-out: A2058 IC50): 6.9 µM
IC50 ([2]; Homo sapiens, DU-145, DU145, 48 hr, 0.05 to 10 μM in 1% DMSO, MTS (Table 2a), read-out: DU145 IC50): 4.6 µM

SMILES: CN1C(=O)C(=O)c2cc(-c3cccnc3)ccc21 [Compound 7]
IC50 [1, 5]: 4.2 µM
IC50 [2, 6]: 4.3 µM

SMILES: O=C1C(=O)N(CCc2ccccc2)c2ccc(-c3cccnc3)cc21 [Compound 8]
IC50 [1, 5]: > 5 µM
IC50 [2, 6]: 5 µM

SMILES: O=C1C(=O)N(CCO)c2ccc(-c3cccnc3)cc21 [Compound 10]
IC50 [1, 5]: > 5 µM
IC50 [2, 6]: > 5 µM

SMILES: O=C1C(=O)N(CCOCCO)c2ccc(-c3cccnc3)cc21 [Compound 11]
IC50 [1, 5]: > 5 µM
IC50 [2, 6]: > 5 µM

SMILES: O=C1C(=O)N(Cc2cccs2)c2ccc(-c3cccnc3)cc21 [Compound 12, N-(2-Thienylmethyl)-5-(pyridin-3-yl)indoline-2,3-dione]
IC50 [3]: 0.9 µM
IC50 [4]: 2.2 µM
IC50 [1, 5]: 2 µM
IC50 [2, 6]: 0.91 µM

SMILES: O=C1C(O)c2cc(-c3cccnc3)ccc2N1Cc1ccccc1 (stereo not shown) [Compound 13, N-Benzyl-3-hydroxy-5-(pyridin-3-yl)indoline-2-one]
IC50 [1, 5]: 2.3 µM
IC50 [2, 6]: 2.5 µM

SMILES: CC(=O)OC1C(=O)N(Cc2ccccc2)c2ccc(-c3cccnc3)cc21 (stereo not shown) [Compound 14, 3-Acetoxy-N-Benzyl-5-(pyridin-3-yl)indoline-2-one]
IC50 [1, 5]: > 5 µM
IC50 [2, 6]: > 5 µM

SMILES: O=C1Cc2cc(-c3cccnc3)ccc2N1Cc1ccccc1 [Compound 15, N-Benzyl-5-(pyridin-3-yl)indoline-2-one]
IC50 [1, 5]: > 5 µM
IC50 [2, 6]: > 5 µM

SMILES: O=C1C(=O)N(Cc2ccsc2)c2ccc(-c3cccnc3)cc21 [Compound 16, N-(3-Thienylmethyl)-5-(pyridin-3-yl)indoline-2,3-dione]
IC50 [3]: 0.5 µM
IC50 [4]: 1.7 µM
IC50 [1, 5]: 1.8 µM
IC50 [2, 6]: 0.9 µM

SMILES: Cc1ccc2c(c1)C(=O)C(=O)N2CCCc1ccccc1 [Compound 19]
IC50 [1, 5]: > 5 µM
IC50 [2, 6]: > 5 µM

SMILES: CCCc1ccc2c(c1)C(=O)C(=O)N2CCCc1ccccc1 [Compound 20]
IC50 [1, 5]: 2.5 µM
IC50 [2, 6]: > 5 µM

SMILES: CC(C)c1ccc2c(c1)C(=O)C(=O)N2CCCc1ccccc1 [Compound 21]
IC50 [1, 5]: 3.2 µM
IC50 [2, 6]: > 5 µM

SMILES: O=C1C(=O)N(CCCc2ccccc2)c2ccc(-c3ccccc3)cc21 [Compound 23]
IC50 [1, 5]: 5.9 µM
IC50 [2, 6]: 4.2 µM

SMILES: O=C1C(=O)N(CCCc2ccccc2)c2ccc(-c3ccsc3)cc21 [Compound 24]
IC50 [1, 5]: 2.9 µM
IC50 [2, 6]: 2.5 µM

SMILES: O=C1C(=O)N(CCCc2ccccc2)c2ccc(-c3ccco3)cc21 [Compound 25]
IC50 [1, 5]: 2 µM
IC50 [2, 6]: 1.5 µM

SMILES: O=C1C(=O)N(CCCc2ccccc2)c2ccc(-c3cncnc3)cc21 [Compound 26]
IC50 [1, 5]: 0.7 µM
IC50 [2, 6]: 0.53 µM

SMILES: O=C1C(=O)N(C/C=C/c2ccccc2)c2ccc(-c3cncnc3)cc21 [Compound 27]
IC50 [1, 5]: 0.4 µM
IC50 [2, 6]: 0.36 µM

SMILES: O=C1C(=O)N(CCCc2ccccc2)c2ccc(-c3ccncc3)cc21 [Compound 28]
IC50 [1, 5]: 1.6 µM
IC50 [2, 6]: 1.3 µM

SMILES: O=C1C(=O)N(C/C=C/c2ccccc2)c2ccc(-c3ccc(F)nc3)cc21 [Compound 29]
IC50 [1, 5]: 0.3 µM
IC50 [2, 6]: 0.33 µM

SMILES: O=C1C(=O)N(C/C=C/c2ccccc2)c2ccc(-c3ccsc3)cc21 [Compound 30]
IC50 [1, 5]: 1.4 µM
IC50 [2, 6]: 0.87 µM

SMILES: O=C1C(=O)N(C/C=C/c2ccccc2)c2ccc(-c3cccnc3F)cc21 [Compound 31]
IC50 [1, 5]: 0.35 µM
IC50 [2, 6]: 0.26 µM

SMILES: O=C1C(=O)N(Cc2ccccc2)c2ccc(-c3ccccc3)cc21 [Compound 32]
IC50 [1, 5]: 1.9 µM
IC50 [2, 6]: 4.1 µM

SMILES: O=C1/C(=N/O)c2cc(-c3cccnc3)ccc2N1Cc1ccccc1 [Compound 33]
IC50 [1, 5]: > 5 µM
IC50 [2, 6]: > 5 µM

SMILES: CO/N=C1/C(=O)N(Cc2ccccc2)c2ccc(-c3cccnc3)cc21 [Compound 34]
IC50 [1, 5]: > 5 µM
IC50 [2, 6]: > 5 µM

SMILES: O=C1C(=O)N(C/C=C/c2ccccc2)c2ccc(-c3cccc([N+](=O)[O-])c3)cc21 [Compound 101]
IC50 [1, 7]: 2.2 µM
IC50 [2, 8]: 2.1 µM

The next lines start with the values.

IC50 [1, 9]: 3.7 µM
IC50 [2, 10]: 4.1 µM
SMILES: O=C1C(=O)N(Cc2ccccn2)c2ccc(-c3cccnc3)cc21 [Compound 102]

IC50 [1, 7]: 4.4 µM
IC50 [2, 8]: 4.3 µM
SMILES: O=C1C(=O)N(Cc2ccccn2)c2ccc(-c3cccnc3)cc21 [Compound 103]

IC50 [1, 9]: 2.1 µM
IC50 [2, 10]: 0.91 µM
SMILES: O=C1C(=O)N(CCCc2cccnc2)c2ccc(-c3cccnc3)cc21 [Compound 104]

IC50 [1, 9]: 4.8 µM
IC50 [1, 11]: 4.7 µM
IC50 [2, 10]: 2.5 µM
IC50 [2, 12]: 4.6 µM
SMILES: O=C1C(=O)N(CCCc2cccnc2)c2ccc(-c3cccnc3)cc21 [Compound 105]

IC50 [1, 7]: 1.4 µM
IC50 [2, 8]: 0.74 µM
SMILES: O=C1C(=O)N(C/C=C/c2ccncc2)c2ccc(-c3cccnc3)cc21 [Compound 106]

IC50 [1, 9]: 2 µM
IC50 [1, 11]: 1.6 µM
IC50 [2, 10]: 0.96 µM
IC50 [2, 12]: 0.74 µM
SMILES: O=C1C(=O)N(C/C=C/c2ccncc2)c2ccc(-c3cccnc3)cc21 [Compound 107]

IC50 [1, 7]: 0.5 µM
IC50 [2, 8]: 0.45 µM
SMILES: O=C1C(=O)N(C/C=C/c2cccnc2)c2ccc(-c3cccnc3)cc21 [Compound 108]

IC50 [1, 7]: 0.58 µM
IC50 [2, 8]: 0.47 µM
SMILES: O=C1C(=O)N(C/C=C/c2ccccn2)c2ccc(-c3cccnc3)cc21 [Compound 110]

IC50 [1, 9]: 0.58 µM
IC50 [1, 11]: 0.84 µM
IC50 [2, 10]: 0.48 µM
IC50 [2, 12]: 0.5 µM
SMILES: O=C1C(=O)N(C/C=C/c2ccccn2)c2ccc(-c3cccnc3)cc21 [Compound 111]

IC50 [1, 7]: > 5 µM
IC50 [2, 8]: > 5 µM
SMILES: CCN(CCN1C(=O)C(=O)c2cc(-c3cccnc3)ccc21)c1ccccc1 [Compound 112]

IC50 [1, 11]: > 5 µM
IC50 [2, 12]: > 5 µM
SMILES: CCN(CCN1C(=O)C(=O)c2cc(-c3cccnc3)ccc21)c1ccccc1 [Compound 113]

IC50 [1, 7]: 0.65 µM
IC50 [2, 8]: 1 µM
SMILES: O=C1C(=O)N(C/C=C/c2ccc3ccccc3n2)c2ccc(-c3cccnc3)cc21 [Compound 114]

IC50 [1, 9]: 0.68 µM
IC50 [1, 11]: 1.9 µM
IC50 [2, 10]: 1.4 µM
IC50 [2, 12]: 1.9 µM
SMILES: O=C1C(=O)N(C/C=C/c2ccc3ccccc3n2)c2ccc(-c3cccnc3)cc21 [Compound 115]

IC50 [1, 7]: 0.39 µM
IC50 [2, 8]: 0.66 µM
SMILES: O=C1C(=O)N(C/C=C/c2cccnc2Cl)c2ccc(-c3cccnc3)cc21 [Compound 116]

IC50 [1, 7]: 1.9 µM
IC50 [2, 8]: 3.4 µM
SMILES: O=C1C(=O)N(Cc2ccccc2I)c2ccc(-c3cccnc3)cc21 [Compound 117]

IC50 [1, 7]: 3.3 µM
IC50 [2, 8]: > 5 µM
SMILES: O=C1C(=O)N(Cc2ccccc2-c2cccnc2)c2ccc(-c3cccnc3)cc21 [Compound 118]

IC50 [1, 7]: 1.4 µM
IC50 [2, 8]: 2.3 µM
SMILES: O=C1C(=O)N(Cc2cccc(-c3cccnc3)c2)c2ccc(-c3cccnc3)cc21 [Compound 119]

IC50 [1, 9]: 1.2 µM
IC50 [1, 11]: 1.9 µM
IC50 [2, 10]: 2.3 µM
IC50 [2, 12]: 4.1 µM
SMILES: O=C1C(=O)N(Cc2cccc(-c3cccnc3)c2)c2ccc(-c3cccnc3)cc21 [Compound 120]

IC50 [1, 7]: 0.35 µM
IC50 [2, 8]: 0.5 µM
SMILES: O=C1C(=O)N(Cc2ccc(I)cc2)c2ccc(-c3cccnc3)cc21 [Compound 121]

IC50 [1, 7]: 0.38 µM
IC50 [2, 8]: 0.58 µM
SMILES: O=C1C(=O)N(Cc2ccc(-c3cccnc3)cc2)c2ccc(-c3cccnc3)cc21 [Compound 122]

IC50 [1, 9]: 0.38 µM
IC50 [1, 11]: 0.8 µM
IC50 [2, 10]: 0.6 µM
IC50 [2, 12]: 2.3 µM
SMILES: O=C1C(=O)N(Cc2ccc(-c3cccnc3)cc2)c2ccc(-c3cccnc3)cc21 [Compound 123]
